From patent US20160206579A1 (INSERM (Institut National de la Santé et de la Recherche …, priority 2009, published 2016)

What was measured:
retinal ganglion cells [1] = assay: Retinal ganglion cell degeneration induced by vigabatrin in young rats, Brn3A-positive RGC count in retinal sections; type: in vivo, Wistar rats
Procedure: Breeds of Wistar rats Rj Wi IOPS Han were purchased from Janvier (Le Genest-St-Isle, France). Vigabatrin (VGB) dissolved in 0.9% NaCl was administered at 0.6 mg/jour (6 mg/ml, 0.1 ml) to rats by daily intraperitoneal injection for 25 days from age 4 days. These daily doses (50 mg/kg for rats of 12 g) are in-line with those described for the treatment of epilepsy (adult patients: […]; children:50-75 mg/kg; or infants: 100-150 mg/kg) (Aicardi et al., 1996; Chiron et al., 1997; Lux et al., 2004).
Animals were anesthetized by intraperitoneal injection (0.8 to 1.2 ml/kg) of a solution containing ketamine (40 mg/ml) and xylazine (4 mg/ml Rompum). They were then perfused first with heparin 1000 UI/ml in saline solution (0.9% NaCl), then with fixative containing 4% Paraformaldehyde (Merck chemicals ref.: 100496) and 0.2% glutaraldehyde (fluka 25%). Eye cups were isolated and fixed overnight at 4° C. in 4% (wt/vol) paraformaldehyde in phosphate buffered saline (PBS; 0.01M, pH 7.4). The tissue was cryoprotected in successive solutions of PBS containing 10%, 20% and 30% sucrose at 4° C., oriented along the dorso-ventral axis and embedded in OCT (Labonord, Villeneuve d'Ascq, France). Retinal sections (8-10 μm thickness) were permeabilised for five minutes in PBS containing 0.1% Triton X-100 (Sigma, St. Louis, Mo.), rinsed, and incubated in PBS containing 1% bovine serum albumin (Eurobio, Les-Ulis, France), 0.1% Tween 20 (Sigma), and 0.1% sodium azide (Merck, Fontenay-Sous-Bois, France) for two hours at room temperature. The primary Brn3A monoclonal antibody (Chemicon) was added to the solution and incubated for two hours at room temperature. Sections were rinsed and then incubated with the secondary antibody, rabbit anti-mouse IgG conjugated to either Alexa™594 (1:500, Molecular Probes) for two hours. […] Quantifications were achieved on whole vertical sections cut along the dorso-ventral axis and crossing the optic nerve. […]

optic nerve = conditions: treated infants; Frisen and Malmgren 2003, Viestenz et al. 2003, Buncic et al. 2004; cited from earlier work
[2] = tested on: RGCs in rat retinal explants; assay: NMDA-treated retinal explants, Brn-3a-immunopositive RGC density on flat-mounts; conditions: for RGC density (Brn-3a-immunopositive): mean±s.e.m.
Procedure: E) Quantification of RGC densities from whole flat-mounted retinal explants using the automated counting platform. […] The scale bar represents 100 μm.
At the end of the incubation, RGCs were immunolabeled with an anti-Brn-3a antibody.

[3] = tested on: glutamate N-methyl-D-aspartate (NMDA) receptors; conditions: Seki M et al., 2008; cited from earlier work
[4] = tested on: pure adult rat RGC in culture; assay: Survival of pure cultured retinal ganglion cells (live-dead viability test, 6 DIV vs 1 DIV); type: cell-based, Long Evans rat; conditions: 1 mM taurine, 6 days in culture
Description: Primary cultures of pure ganglion cells: Primary cultures of retinal ganglion cells (RGC) were isolated from retinae of adult Long Evans rat (8-week old) with an immunopanning technique, according the protocol previously described in young rats by Barres et al. (1988). Briefly, animals were anesthetized and killed by cerebral dislocation and their eyes removed and placed in a solution of phosphate-buffered saline (PBS) containing 1 g/1 of glucose (PBS-glucose; Invitrogen, Carlsbad, Calif., USA). After one rinse in PBS-glucose, retinae were incubated in the same medium containing 33 UI/ml of papain (Worthington, Lakewood, N.J., USA) and 200 UI/ml of DNAse (Sigma-Aldrich, St-Louis, MO, USA) for 30 min at 37° C. They were then rinsed in PBS-glucose, containing 0.15% ovomucoid (Roche Diagnosis, Basel, Switzerland) and 0.15% bovine serum albumin (BSA; Sigma-Aldrich). […]
RGC viability was assessed with the “lived-dead” test (Invitrogen), which consists in labelling viable cells with calcein AM detected as a green fluorescence, whereas dead cell were labelled with ethidium producing a red fluorescence. […] Only lived RCG were counted from seven fields taken on each coverslip using a microscope (Leica DM 5000B, Solms, Germany) equipped for epifluorescence. Viable RCG were counted at 1 day in vitro (DIV) and 6 DIV to calculate the percentage of cell survival.

retinal ganglion cells [5] = assay: Episcleral vein occlusion rat model of glaucoma (taurine plasma level, IOP, photopic ERG, Brn-3a RGC count); type: in vivo, Long-Evans rats; conditions: taurine 0.2 M in drinking water, 3 months after occlusion, vs water animals; statistically significant
Procedure: Long-Evans rats (8-week old) were purchased from Janvier (Le Genest-St-Isle, France) whereas DBA/2J mice (8-month old) were purchased from Charles River (Larbresle, France). Heterozygous P23H rats (line 1) and Sprague Dawley rats (n=7) were bred at Charles River (Saint Aubin-les-Elbeuf, France).
Occlusion of episcleral veins was performed on 8 week-old Long-Evans or Wistar rats as described previously (Mittag et al., 2000). Animals were anesthetized with a mixture Ketamine (100 mg/Kg; Virbac, France) and, Xylazine (10 mg/Kg; Bayer, Leverkusen, Germany), and a local anesthesia (Tetracaine, Laboratoires TVM, Lempdes, France) were administrated on the cornea. At the level of the right eye, three episcleral veins, superonasal, superotemporal and inferotemporal, were emerged by removing the conjunctive tissue. Vein occlusion was realized by cauterization, using Aesculap® bipolar forceps (B. Braun, Melsungen, Germany). […]
IOP was measured from right and left eyes on awake animals using a Tonolab tonometer (Icare, Helsinki, Finland). The tonometer was applied perpendicularly to the cornea and three successive measures were recorded and the average was taken for the final value of IOP.
Photopic ERGs were performed on cauterized and control eyes from rats and DBA2/J mice. […] ERG were recorded using two gold loop electrodes were placed on the corneal surface of each eye and maintained with 3% Ocry-gel. […]

retinal ganglion cells [6] = assay: DBA/2J mice, model of pigmentary glaucoma (taurine plasma level, photopic ERG); type: in vivo; conditions: 12-month old DBA/2J mice, taurine supplementation for 4 months vs pure water
Procedure: Photopic ERGs were performed on cauterized and control eyes from rats and DBA2/J mice. Animals were anesthetized by an intramuscular injection with a solution containing a mixture of Ketamine (100 mg/Kg) and, Xylazine (10 mg/Kg). Pupils were dilated by a topical application of Mydriaticum, Laboratoires Thea, Clermont-Ferrand, France). ERG were recorded using two gold loop electrodes were placed on the corneal surface of each eye and maintained with 3% Ocry-gel. These recording electrodes were respectively referenced with two steel electrodes, inserted sub-cuteanously at the level of each cheek of animals. A needle electrode, also inserted sub-cuteanously, at the level of the basis of the tail served as ground. Responses to light stimulus were amplified, filtered and digitalized using the “Multiliner vision” program.
Statistical analysis of the results was performed on raw data. An unpaired student t test was used to compare means of 2 groups. For more than 2 groups compared, a one-way ANOVA was used for variance analysis, followed in case of significance by a Bonferroni post-hoc test to compare the means of each group. Differences were considered significant at *P<0.05; **P<0.01; and ***P<0.001.

retinal ganglion cells [7] = assay: P23H rat model of retinitis pigmentosa, Brn3a immunopositive RGC count in retinal sections; type: in vivo, heterozygous P23H rats
Description: Long-Evans rats (8-week old) were purchased from Janvier (Le Genest-St-Isle, France) whereas DBA/2J mice (8-month old) were purchased from Charles River (Larbresle, France). Heterozygous P23H rats and Sprague Dawley rats (n=7) were bred at Charles River (Saint Aubin-les-Elbeuf, France). For taurine supplementation, animals were divided in two groups: a control group and a group receiving taurine in its drinking water. […] Animals drinking water without added taurine were always considered as control animals.
Animals were anesthetized and killed by cerebral dislocation and their eyes were removed and placed into a fixative solution containing 4% paraformaldehyde (Merck chemicals, Darmstadt, Germany) for 24 hours. Eye cups were isolated and cryoprotected in successive solutions of PBS containing 10%, 20% and 30% sucrose at 4° C., oriented along the dorso-ventral axis and embedded in NEG50® (Microm, Francheville, France). Retinal sections were permeabilized for five minutes in PBS containing 0.1% Triton X-100 (Sigma, St. Louis, Mo.), rinsed, and incubated in PBS containing 1% bovine serum albumin (Sigma) and 0.05% Tween 20 (Sigma) for one hour at room temperature. […] Quantifications were achieved on whole vertical sections cut along the dorso-ventral axis and crossing the optic nerve. […]

In the case of `C=CC(N)CCC(=O)O` (stereo not drawn) [VGB, Vigabatrin], the “decrease in number of retinal ganglion cells vs control” value (retinal ganglion cells [1]; young rats treated with VGB, p<0.001) is listed as 56%, the “number of retinal ganglion cells (Brn3A-positive, retinal sections)” value (retinal ganglion cells [1]; young rats, VGB 0.6 mg/day i.p. for 25 days from age 4 days, control 15.06±0.93, s.e.m., n=10) is listed as 6.56±0.32 and the optic nerve atrophy (optic nerve) is listed as “induced an optic nerve atrophy”.

For `CN[C@H](CC(=O)O)C(=O)O` [NMDA, N-methyl-D-aspartate, reference compound], the “RGC density (Brn-3a-immunopositive)” value ([2]; 100 μM NMDA for 4 days, control 996.0±26.5, n=31) was 555.6±31.8 cells/mm2 and the “reduction in RGC density vs control” value ([2]; 100 μM NMDA for 4 days, p<0.001) was −44%.

For `CC12CC3CC(C)(C1)CC(N)(C3)C2` [memantine], the “RGC neuroprotection in models of glaucoma” value [3] is listed as “exert an RGC neuroprotection”.

For `NCCS(=O)(=O)O` [taurine, 2-aminoethanesulfonic acid], the “number of retinal ganglion cells greater than in VGB-treated group without supplementation” value (retinal ganglion cells [1]; VGB-treated rats with taurine supplementation, p<0.001) was 84.9%, the “increase in number of surviving cells vs control conditions” value [4] was 49% and the “RGC survival at 6 DIV as percentage of that at 1 DIV” value ([4]; control conditions 18.2±1.8%, mean±SEM) was 27.2±3.7%. For the same compound, the “decrease in photopic ERG amplitudes on operated eye” value (retinal ganglion cells [5]) was “less important than in animals without taurine supplementation”, the “decrease in photopic ERG amplitudes” value (retinal ganglion cells [6]) was “partially prevented” and the “average RGC number (brn3a immunopositive, retinal sections)” value (retinal ganglion cells [7]; taurine 0.1 M in drinking water from 9 to 12 months, n=6, untreated P23H 298±12, Sprague-Dawley control 411±19, mean±SEM) was 344±8. For the same compound, the RGC loss prevented (retinal ganglion cells [7]; taurine 0.1 M in drinking water, P<0.01 vs untreated P23H) was 40%, the “cell loss rescued by co-incubation with NMDA” value ([2]; 100 μM NMDA plus 1 mM taurine for 4 days) was 22% and the “RGC density (Brn-3a-immunopositive)” value ([2]; 100 μM NMDA plus 1 mM taurine for 4 days, n=23, p<0.05 vs NMDA) was 655.7±44.4 cells/mm2.
